Among the data in US10800757B2, “Inhibitors of TRPC6” (Boehringer Ingelheim International GmbH, priority 2017, dated 2020) are IC50 values, retold here.

Structures can show the parent of a compound that is named as a salt.

TRPC6, sequence (Q9Y210 whole entry, species assumed): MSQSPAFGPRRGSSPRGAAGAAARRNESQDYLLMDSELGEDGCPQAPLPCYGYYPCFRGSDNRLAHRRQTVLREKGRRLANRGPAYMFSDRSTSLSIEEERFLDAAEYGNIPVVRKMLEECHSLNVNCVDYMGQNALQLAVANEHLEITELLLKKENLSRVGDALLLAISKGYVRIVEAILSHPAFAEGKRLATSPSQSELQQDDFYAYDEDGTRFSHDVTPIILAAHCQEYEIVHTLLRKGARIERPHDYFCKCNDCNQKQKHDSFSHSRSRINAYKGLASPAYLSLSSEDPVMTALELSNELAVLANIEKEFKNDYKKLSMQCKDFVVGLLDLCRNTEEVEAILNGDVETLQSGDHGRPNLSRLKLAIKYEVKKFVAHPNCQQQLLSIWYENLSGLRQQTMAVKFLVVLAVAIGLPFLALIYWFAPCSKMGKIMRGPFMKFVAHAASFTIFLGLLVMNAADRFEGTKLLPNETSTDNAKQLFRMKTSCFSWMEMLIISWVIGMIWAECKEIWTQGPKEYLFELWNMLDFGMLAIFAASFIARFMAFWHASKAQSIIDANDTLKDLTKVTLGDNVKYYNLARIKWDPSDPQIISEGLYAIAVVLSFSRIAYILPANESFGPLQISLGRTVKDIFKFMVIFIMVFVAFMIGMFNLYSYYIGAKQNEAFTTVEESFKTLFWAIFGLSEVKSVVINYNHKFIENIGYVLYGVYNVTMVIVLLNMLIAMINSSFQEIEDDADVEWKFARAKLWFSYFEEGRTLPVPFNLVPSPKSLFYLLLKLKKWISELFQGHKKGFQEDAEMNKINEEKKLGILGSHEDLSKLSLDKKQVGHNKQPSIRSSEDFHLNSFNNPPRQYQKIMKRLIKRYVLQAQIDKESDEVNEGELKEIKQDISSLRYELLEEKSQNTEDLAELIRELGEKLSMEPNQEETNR

This experiment has as its target TRPC6 (Homo sapiens (Human), UniProt Q9Y210). Description: High throughput screening assay: fluorescent calcium (Fluo4/AM) assay of TRPC6 channel activation by GSK1702934A in HEK293/TREx cells. The format is cell-based. As to conditions: HEK293/TREx cells stably transfected with TRPC6; agonist GSK1702934A; 7 concentrations 20 μM to 0.027 μM, triplicate. The essentials:
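HEK293/TREx cells stably carrying a TRPC6 construct were induced with 1 μg/ml tetracycline, plated at ~35,000 cells/well in 384-well CellBind plates, and loaded with 0.5 μM Fluo4/AM in Ringer's with 1% Pluronic F-127. Compounds were added 2 minutes before 125 nM GSK1702934A in high-Ca2+ Ringer. Fluorescence was read on a Hamamatsu FDSS 6000, normalized to controls, and fitted for IC50 from triplicates.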
As to `COc1cc(C(=O)N2CCC(c3ccc(N)nn3)CC2)ncc1OCC1(C)CC1` [Compound 75, [4-(6-Amino-pyridazin-3-yl)-piperidin-1-yl]-[4-methoxy-5-(1-methyl-cyclopropylmethoxy)-pyridin-2-yl]-methanone], the IC50 (as a rule, the midpoint of a concentration-inhibition curve) came out at 1.5 µM. Then `COc1cc(C(=O)N2CCN(c3ccc(N)nc3)C[C@@H]2CO)ncc1Oc1ccc(F)cc1` [Compound 20, [(R)-4-(6-Amino-pyridin-3-yl)-2-hydroxymethyl-piperazin-1-yl]-[5-(4-fluoro-phenoxy)-4-methoxy-pyridin-2-yl]-methanone], with 0.042 µM; and `COc1ccc(Oc2cnc(C(=O)N3CCN(c4ccc(N)nc4)C[C@@H]3CO)cc2OC)cc1` [Compound 82, [(R)-4-(6-Amino-pyridin-3-yl)-2-hydroxymethyl-piperazin-1-yl]-[4-methoxy-5-(4-methoxy-phenoxy)-pyridin-2-yl]-methanone], with 0.18 µM.

For `COC[C@H]1CN(c2cnc(N)cc2OC)CCN1C(=O)c1cc(OC)c(Oc2ccc(F)cc2)cn1` [Compound 55, [(R)-4-(6-Amino-4-methoxy-pyridin-3-yl)-2-methoxymethyl-piperazin-1-yl]-[5-(4-fluoro-phenoxy)-4-methoxy-pyridin-2-yl]-methanone], the IC50 came to 0.22 µM. Under `COc1ccc(Oc2cnc(C(=O)N3CCC(c4ccc(N)nn4)CC3)cc2OC)cc1` [Compound 44, [4-(6-Amino-pyridazin-3-yl)-piperidin-1-yl]-[4-methoxy-5-(4-methoxy-phenoxy)-pyridin-2-yl]-methanone] stands 0.14 µM; under `COc1cc(C(=O)N2CCC(c3nnc(N)cc3OC)CC2)ncc1Oc1ccccc1` [Compound 47, 5-Methoxy-6-[1-(4-methoxy-5-phenoxypyridine-2-carbonyl)piperidin-4-yl]pyridazin-3-amine], 0.22 µM. As for `COc1cc(N)ncc1N1CCN(C(=O)c2ccc(Oc3ccccc3)cn2)[C@@H]([C@@H](C)O)C1` [Compound 50, (1R)-1-[(2R)-4-(6-amino-4-methoxypyridin-3-yl)-1-(5-phenoxypyridine-2-carbonyl)piperazin-2-yl]ethan-1-ol], the IC50 amounted to 0.047 µM. Consider `COc1cc(C(=O)N2CCC(c3cnc(N)cc3OC)CC2)ncc1O[C@H](C)C1CC1` [Compound 77, (6-Amino-4-methoxy-3′,4′,5′,6′-tetrahydro-2′H-[3,4′]bipyridinyl-1′-yl)-[5-((R)-1-cyclopropyl-ethoxy)-4-methoxy-pyridin-2-yl]-methanone], for which the IC50 was found to be 2.2 µM.

For `COc1cc(C(=O)N2CCN(c3cnc(N)cc3C)C[C@@H]2CO)ncc1Oc1ccc(F)cc1` [Compound 7, [(R)-4-(6-Amino-4-methyl-pyridin-3-yl)-2-hydroxymethyl-piperazin-1-yl]-[5-(4-fluoro-phenoxy)-4-methoxy-pyridin-2-yl]-methanone], the IC50 was found to be 0.027 µM.

On to `COc1cc(C(=O)N2CCC(c3cnc(N)cc3OC)CC2)ncc1OCC1CC1` [Compound 37, 5-{1-[5-(Cyclopropylmethoxy)-4-methoxypyridine-2-carbonyl]piperidin-4-yl}-4-methoxypyridin-2-amine], for which the IC50 came out at 0.16 µM.

Turning to `COc1cc(N)nnc1C1CCN(C(=O)c2ccc(Oc3ccc(C(F)(F)F)cc3)cn2)CC1` [Compound 91, 5-Methoxy-6-(1-{5-[4-(trifluoromethyl)phenoxy]pyridine-2-carbonyl}piperidin-4-yl)pyridazin-3-amine trifluoroacetic acid], the concentration for half-maximal inhibition (IC50) is 0.414 µM. Turning to `COc1cc(C(=O)N2CCC(c3ccc(N)nn3)CC2)ncc1OCc1ccc(F)cc1` [Compound 41, [4-(6-Amino-pyridazin-3-yl)-piperidin-1-yl]-[5-(4-fluoro-benzyloxy)-4-methoxy-pyridin-2-yl]-methanone], the IC50 came to 0.18 µM. In the case of `COc1cc(C(=O)N2CCC(c3cnc(N)cc3OC)CC2)ncc1OC[C@H]1C[C@@H](C(F)(F)F)C1` [Compound 93, TFA salt of 4-Methoxy-5-[1-(4-methoxy-5-{[3-(trifluoromethyl)-cyclobutyl]methoxy}-pyridine-2-carbonyl)piperidin-4-yl]pyridin-2-amin], the IC50 stood at 0.595 µM. Then `COc1cc(C(=O)N2CCN(c3cnc(N)cc3OC)CC2)ncc1Oc1ccc(F)cc1` [Compound 1, 5-{4-[5-(4-Fluorophenoxy)-4-methoxypyridine-2-carbonyl]piperazin-1-yl}-4-methoxypyridin-2-amine], with below 0.027 µM; and `COc1cc(C(=O)N2CCN(c3cnc(N)cc3OC)C[C@@H]2CO)ncc1Oc1ccccc1` [Compound 69, [(R)-4-(6-Amino-4-methoxy-pyridin-3-yl)-2-hydroxymethyl-piperazin-1-yl]-(4-methoxy-5-phenoxy-pyridin-2-yl)-methanone], with 0.63 µM; and `COc1ccc(Oc2cnc(C(=O)N3CCC(c4ccc(N)nc4)CC3)cc2OC)cc1` [Compound 22, (6-Amino-3′,4′,5′,6′-tetrahydro-2′H-[3,4′]bipyridinyl-1′-yl)-[4-methoxy-5-(4-methoxy-phenoxy)-pyridin-2-yl]-methanone], with 0.046 µM. Then `COc1cc(C(=O)N2CCC(c3ccc(N)nn3)CC2)ncc1Oc1ccc(Cl)cc1` [Compound 34, [4-(6-Amino-pyridazin-3-yl)-piperidin-1-yl]-[5-(4-chloro-phenoxy)-4-methoxy-pyridin-2-yl]-methanone], with 0.085 µM. Under `COc1cc(C(=O)N2C3CCC2CN(c2cnc(N)cc2OC)C3)ncc1Oc1ccccc1` [Compound 51, [3-(6-Amino-4-methoxy-pyridin-3-yl)-3,8-diaza-bicyclo[3.2.1]oct-8-yl]-(4-methoxy-5-phenoxy-pyridin-2-yl)-methanone] stands 0.29 µM; under `COc1cc(C(=O)N2CCC(c3ccc(N)nn3)CC2)ncc1OCCc1ccccc1` [Compound 73, [4-(6-Amino-pyridazin-3-yl)-piperidin-1-yl]-(4-methoxy-5-phenethyloxy-pyridin-2-yl)-methanone], 1.3 µM.
